Data taken from patent US10266497B2 (ABIDE THERAPEUTICS, INC., priority 2017, dated 2019).

Legend:
MAGL [1] = biological target: T1, MAGL (Homo sapiens, UniProt Q99685); assay: In vitro competitive activity-based protein profiling, MAGL, human; settings: read-out: MAGL % inh. 1 μM (human)
T1 sequence (Q99685 1-303): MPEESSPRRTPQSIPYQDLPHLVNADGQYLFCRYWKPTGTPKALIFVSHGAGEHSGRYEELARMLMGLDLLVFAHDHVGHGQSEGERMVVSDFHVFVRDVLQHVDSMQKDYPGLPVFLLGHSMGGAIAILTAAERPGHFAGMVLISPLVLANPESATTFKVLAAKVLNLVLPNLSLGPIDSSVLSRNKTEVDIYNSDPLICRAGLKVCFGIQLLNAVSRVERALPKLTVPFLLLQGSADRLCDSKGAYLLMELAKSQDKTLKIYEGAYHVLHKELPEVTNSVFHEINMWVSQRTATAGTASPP

MAGL [2] = biological target: T2, MAGL (Mus musculus, UniProt O35678); assay: In vitro competitive activity-based protein profiling, MAGL, mouse; settings: read-out: MAGL % inh. 1 μM (mouse)
T2 sequence (O35678 1-303): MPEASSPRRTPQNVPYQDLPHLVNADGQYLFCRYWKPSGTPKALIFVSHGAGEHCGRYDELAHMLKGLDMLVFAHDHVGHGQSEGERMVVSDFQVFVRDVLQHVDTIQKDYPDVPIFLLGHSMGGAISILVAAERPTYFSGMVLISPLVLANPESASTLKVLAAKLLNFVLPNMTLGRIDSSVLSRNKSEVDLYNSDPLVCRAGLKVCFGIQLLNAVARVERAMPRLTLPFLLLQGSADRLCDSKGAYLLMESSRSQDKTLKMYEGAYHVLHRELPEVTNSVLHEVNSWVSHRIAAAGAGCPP

FAAH [3] = biological target: T3, FAAH (Homo sapiens, UniProt O00519); assay: In vitro competitive activity-based protein profiling, FAAH, human; settings: for inhibition at 1 µM: read-out: FAAH % inh. 1 μM (human)
T3 sequence (O00519 1-579): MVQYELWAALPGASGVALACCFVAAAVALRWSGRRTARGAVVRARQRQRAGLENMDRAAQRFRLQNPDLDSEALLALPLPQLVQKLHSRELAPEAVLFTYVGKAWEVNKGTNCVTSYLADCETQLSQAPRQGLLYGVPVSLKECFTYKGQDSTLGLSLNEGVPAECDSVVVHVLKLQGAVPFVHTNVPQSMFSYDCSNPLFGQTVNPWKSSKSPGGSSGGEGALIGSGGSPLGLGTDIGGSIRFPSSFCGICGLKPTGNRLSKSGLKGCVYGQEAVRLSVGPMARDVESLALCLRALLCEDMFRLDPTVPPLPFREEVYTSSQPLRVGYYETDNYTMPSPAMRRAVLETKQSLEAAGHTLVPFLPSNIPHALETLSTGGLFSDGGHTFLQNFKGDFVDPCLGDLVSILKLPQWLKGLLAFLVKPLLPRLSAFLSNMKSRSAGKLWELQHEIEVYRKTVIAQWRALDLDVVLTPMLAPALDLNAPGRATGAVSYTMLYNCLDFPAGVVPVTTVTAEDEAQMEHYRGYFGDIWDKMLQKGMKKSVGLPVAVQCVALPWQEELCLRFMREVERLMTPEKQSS

FAAH [4] = biological target: T4, FAAH (Mus musculus, UniProt O08914); assay: In vitro competitive activity-based protein profiling, FAAH, mouse; settings: read-out: FAAH % inh. 1 μM (mouse)
T4 sequence (O08914 1-579): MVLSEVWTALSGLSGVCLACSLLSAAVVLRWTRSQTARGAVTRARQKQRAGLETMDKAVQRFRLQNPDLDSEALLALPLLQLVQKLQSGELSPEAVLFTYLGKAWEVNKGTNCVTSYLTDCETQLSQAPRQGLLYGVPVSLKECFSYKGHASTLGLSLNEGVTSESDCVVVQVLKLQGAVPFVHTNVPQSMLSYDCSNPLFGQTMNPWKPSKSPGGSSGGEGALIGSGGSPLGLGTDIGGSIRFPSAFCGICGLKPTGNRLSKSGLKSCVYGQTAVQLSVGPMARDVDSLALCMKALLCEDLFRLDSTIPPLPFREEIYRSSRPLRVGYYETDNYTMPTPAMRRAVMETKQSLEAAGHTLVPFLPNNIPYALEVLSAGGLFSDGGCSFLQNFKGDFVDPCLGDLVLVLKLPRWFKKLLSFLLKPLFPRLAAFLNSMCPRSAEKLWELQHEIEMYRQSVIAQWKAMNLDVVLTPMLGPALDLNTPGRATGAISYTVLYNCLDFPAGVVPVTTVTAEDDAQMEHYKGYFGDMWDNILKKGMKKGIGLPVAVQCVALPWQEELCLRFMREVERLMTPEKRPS

SMILES | inhibition at 1 µM (MAGL [1]) | inhibition at 1 µM (MAGL [2]) | IC50 (FAAH [3]) | inhibition at 1 µM (FAAH [3]) | inhibition at 1 µM (FAAH [4])
O=C(O)c1ccn(C(=O)N2CCN(Cc3cccc(Oc4ccccc4Cl)c3)CC2)n1 [Example 85, 1-(4-(3-(2-chlorophenoxy)benzyl)piperazine-1-carbonyl)-1H-pyrazole-3-carboxylic acid] | > 75% | > 75% | 1 to 10 µM | 0 to 25% | 50 to 75%
O=C(O)c1ccn(C(=O)N2CCN(Cc3cc(N4CCCC4)cc(C(F)(F)F)c3)CC2)n1 [Example 87, 1-(4-(3-(pyrrolidin-1-yl)-5-(trifluoromethyl)benzyl)piperazine-1-carbonyl)-1H-pyrazole-3-carboxylic acid] | > 75% | > 75% |  | 0 to 25% | 0 to 25%
Cc1cc(-c2ccccc2)ccc1CN1CCN(C(=O)n2ccc(C(=O)O)n2)C(C)C1 (stereo not drawn) [Example 89, 1-(2-methyl-4-((3-methyl-[1,1′-biphenyl]-4-yl)methyl)piperazine-1-carbonyl)-1H-pyrazole-3-carboxylic acid] | > 75% | > 75% | 0.1 to 1 µM | > 75% | > 75%
C[C@@H]1CC[C@H](C)N1c1cc(C(F)(F)F)ccc1CN1CCN(C(=O)n2ccc(C(=O)O)n2)CC1 [Example 94, 1-(4-(2-((2R,5S)-2,5-dimethylpyrrolidin-1-yl)-4-(trifluoromethyl)benzyl)piperazine-1-carbonyl)-1H-pyrazole-3-carboxylic acid] | > 75% | > 75% |  | 0 to 25% | 0 to 25%
O=C(O)c1ccn(C(=O)N2CCN(Cc3ccc(Cl)cc3N3CCN(C4CC4)CC3)CC2)n1 [Example 97, 1-(4-(4-chloro-2-(4-cyclopropylpiper-azin-1-yl)benzyl)piperazine-1-carbonyl)-1H-pyrazole-3-carboxylic acid] | > 75% | > 75% |  | 0 to 25% | 0 to 25%
NC(=O)c1ccn(C(=O)N2CCC3(CCN(Cc4cc(Cl)ccc4C(F)(F)F)C3)CC2)n1 [Example 99, 1-(2-(5-chloro-2-(trifluoromethyl)benzyl)-2,8-diazaspiro[4.5]decane-8-carbonyl)-1H-pyrazole-3-carboxamide] | > 75% | > 75% |  | > 75% | > 75%
O=C(O)c1ccn(C(=O)N2CCN(Cc3ccc(C(F)(F)F)cc3N3CCC(F)CC3)CC2)n1 [Example 102, 1-(4-(2-(4-fluoropiperidin-1-yl)-4-(trifluoromethyl)benzyl)piperazine-1-carbonyl)-1H-pyrazole-3-carboxylic acid] | > 75% | > 75% |  | 25 to 50% | 0 to 25%
C[C@@H]1CCCCN1c1cc(C(F)(F)F)ccc1CN1CCN(C(=O)n2ccc(C(=O)O)n2)CC1 [Example 103, (R)-1-(4-(2-(2-methylpiperidin-1-yl)-4-(trifluoromethyl)benzyl)piperazine-1-carbonyl)-1H-pyrazole-3-carboxylic acid] | > 75% | > 75% |  | 0 to 25% | 0 to 25%
O=C(O)c1ccn(C(=O)N2CCN(Cc3ccc(C(F)(F)F)cc3N3CCC(F)(F)CC3)CC2)n1 [Example 108, 1-(4-(2-(4,4-difluoropiperidin-1-yl)-4-(trifluoromethyl)benzyl)piperazine-1-carbonyl)-1H-pyrazole-3-carboxylic acid] | > 75% | > 75% |  | 0 to 25% | 0 to 25%
C[C@H]1CCCCN1c1cc(C(F)(F)F)ccc1CN1CCN(C(=O)n2ccc(C(=O)O)n2)CC1 [Example 110, (S)-1-(4-(2-(2-methylpiperidin-1-yl)-4-(trifluoromethyl)benzyl)piperazine-1-carbonyl)-1H-pyrazole-3-carboxylic acid] | > 75% | > 75% |  | 0 to 25% | 0 to 25%
CN(Cc1cc(Cl)ccc1C(F)(F)F)C1CCN(C(=O)n2cc(Cl)c(C(=O)O)n2)CC1 [Example 112, 4-chloro-1-(4-((5-chloro-2-(trifluoromethyl)benzyl)(methyl)amino)piperidine-1-carbonyl)-1H-pyrazole-3-carboxylic acid] | > 75% | > 75% | 0.1 to 1 µM | > 75% | > 75%
O=C(O)c1ccn(C(=O)N2CC3CN(Cc4cc(F)cc(Cl)c4)CC3C2)n1 (stereo not drawn) [Example 115, 1-(5-(3-chloro-5-fluorobenzyl)octa-hydropyrrolo[3,4-c]pyrrole-2-carbonyl)-1H-pyrazole-3-carboxylic acid] | 25 to 50% | 0 to 25% |  | 50 to 75% | > 75%
O=C(O)c1ccn(C(=O)N2CC3CN(Cc4cccc(OC(F)(F)F)c4)CC3C2)n1 (stereo not drawn) [Example 117, 1-(5-(3-(trifluoromethoxy)benzyl)octahydro-pyrrolo[3,4-c]pyrrole-2-carbonyl)-1H-pyrazole-3-carboxylic acid] | 50 to 75% | 50 to 75% |  | 0 to 25% | 50 to 75%
O=C(O)c1ccn(C(=O)N2CC3CN(Cc4cccc(C(F)(F)F)c4)CC3C2)n1 (stereo not drawn) [Example 122, 1-(5-(3-(trifluoromethyl)benzyl)octahydro-pyrrolo[3,4-c]pyrrole-2-carbonyl)-1H-pyrazole-3-carboxylic acid] | 50 to 75% | 25 to 50% |  | 0 to 25% | 50 to 75%
O=C(O)c1ccn(C(=O)N2C[C@H]3C[C@H](Oc4cccc(-c5ccccc5)c4)C[C@H]3C2)n1 [Example 125, 1-(trans-5-([1,1′-biphenyl]-3-yloxy)octahydro-cyclopenta[c]pyrrole-2-carbonyl)-1H-pyrazole-3-carboxylic acid] | > 75% | > 75% |  | > 75% | > 75%
O=C(O)c1ccn(C(=O)N2CCC3(CCCN3Cc3ccc(C(F)(F)F)cc3-c3nnn[nH]3)CC2)n1 [Example 126, 1-(1-(2-(1H-tetrazol-5-yl)-4-(trifluoromethyl)benzyl)-1,8-diazaspiro[4.5]decane-8-carbonyl)-1H-pyrazole-3-carboxylic acid] | 25 to 50% | 0 to 25% |  | 0 to 25% | 0 to 25%
O=C(O)c1ccn(C(=O)N2CCC3(CCN(Cc4cnccc4C(F)(F)F)C3)CC2)n1 [Example 127] | > 75% | > 75% |  | 0 to 25% | 0 to 25%
CN(Cc1ccccc1Cl)[C@H]1C[C@@H]2CN(C(=O)n3cc(Cl)c(C(N)=O)n3)C[C@@H]2C1 [Example 128] | > 75% | > 75% |  | > 75% | > 75%
